Results on 26 compounds are retold here after patent US8227613B2, “Heteroaryl carboxamide derivatives” (Hoffmann-La Roche Inc., priority 2008, dated 2012).

The assay concerns the target T1, human chemokine receptor 2 isoform B (CCR2B) (Homo sapiens, UniProt P41597).
T1 construct: host or cells: CHO-K1 (CHOK1-CCR2B-A5)
T1 sequence (P41597 1-360 isoform P41597-2): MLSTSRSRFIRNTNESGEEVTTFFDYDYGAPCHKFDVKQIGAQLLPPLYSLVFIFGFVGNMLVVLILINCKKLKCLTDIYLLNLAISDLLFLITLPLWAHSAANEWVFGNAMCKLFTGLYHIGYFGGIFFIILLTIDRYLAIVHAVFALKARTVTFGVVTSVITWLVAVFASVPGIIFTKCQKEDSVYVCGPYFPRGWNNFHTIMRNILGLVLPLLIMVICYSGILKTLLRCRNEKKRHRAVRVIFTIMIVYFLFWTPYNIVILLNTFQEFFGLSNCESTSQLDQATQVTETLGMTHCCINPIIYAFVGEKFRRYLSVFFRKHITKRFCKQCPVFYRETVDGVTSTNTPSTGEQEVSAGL
The experiment in a line: Calcium mobilization assay (FLIPR, MCP-1 stimulated CHOK1-CCR2B-A5 cells). It counts as cell-based. Conditions: 20 nM MCP-1, antagonist activity, read-out: IC50 (inhibitor concentration required for 50% inhibition of specific calcium increases). The protocol: Calcium Mobilization Assay
CHOK1-CCR2B-A5 cells (from Euroscreen) stably overexpressing the human chemokine receptor 2 isoform B were cultured in Nutrient Hams F12 medium supplemented with 5% FBS, 100 U/ml penicillin, 100 μg/ml streptomycin, 400 μg/ml G418 and 5 μg/ml puromycin.
For the assay cells were grown overnight in 384-well black clear flat bottom polystyrene plates (Costar) at 37° C. at 5% CO2. After washing with DMEM, 20 mM Hepes, 2.5 mM probenecid, 0.1% BSA (DMEM assay buffer) cells were loaded with 4 μM Fluo-4 in the same DMEM assay buffer for 2 hours at 30° C. Excess dye was removed and cells were washed with DMEM assay buffer. 384-well compound plates were prepared with DMEM assay buffer/0.5% DMSO with or without various concentrations of test compounds. Usually compounds were tested for agonist and antagonist activity.
Test compounds were added to the assay plate and agonist activity was monitored as fluorescence for 80 seconds with a FLIPR (488 nm excitation; 510-570 nm emission; Molecular Devices). After 20-30 min. of incubation at 30° C., 20 nM MCP-1 (R&D; Roche) was added and fluorescence was monitored again for 80 seconds. Increases in intracellular calcium are reported as maximum fluorescence after agonist exposure minus basal fluorescence before exposure. Antagonist activity is indicated as inhibitor concentration required for 50% inhibition of specific calcium increases.
In general terms: A change in cytosolic calcium serves as a functional read-out for many receptors and channels.
As for `Cc1cc(-c2cccc(C(F)(F)F)c2)cnc1C(=O)N1CCC(N2CCCC2)CC1` [Example 1, [3-Methyl-5-(3-trifluoromethyl-phenyl)-pyridin-2-yl]-(4-pyrrolidin-1-yl-piperidin-1-yl)-methanone], the IC50 stood at 18 nM. As for `Cc1cc(-c2cccc(C(F)(F)F)c2)c[n+]([O-])c1C(=O)N1CCC(N2CCCC2)CC1` [Example 2, [3-Methyl-1-oxy-5-(3-trifluoromethyl-phenyl)-pyridin-2-yl]-(4-pyrrolidin-1-yl-piperidin-1-yl)-methanone], the IC50 was 23 nM. Consider `Cc1cc(-c2cccc(C(F)(F)F)c2)c(Cl)nc1C(=O)N1CCC(N2CCCC2)CC1` [Example 3, [6-Chloro-3-methyl-5-(3-trifluoromethyl-phenyl)-pyridin-2-yl]-(4-pyrrolidin-1-yl-piperidin-1-yl)-methanone], for which the IC50 turned out to be 4 nM. For the compound `Cc1cc(-c2cccc(C(F)(F)F)c2)cnc1C(=O)N1CCC(N2CCC[C@H]2CO)CC1` [Example 5, [4-((S)-2-Hydroxymethyl-pyrrolidin-1-yl)-piperidin-1-yl]-[3-methyl-5-(3-trifluoromethyl-phenyl)-pyridin-2-yl]-methanone], the IC50 amounted to 21 nM. In the case of `COc1ccc(CNc2nc(C(=O)N3CCC(N4CCCC4)CC3)c(C)cc2-c2cccc(C(F)(F)F)c2)cc1` [Example 6, [6-(4-Methoxy-benzylamino)-3-methyl-5-(3-trifluoromethyl-phenyl)-pyridin-2-yl]-(4-pyrrolidin-1-yl-piperidin-1-yl)-methanone] it was 130 nM. In the case of `Cc1cc(-c2cccc(C(F)(F)F)c2)c(N)nc1C(=O)N1CCC(N2CCCC2)CC1` [Example 7, [6-Amino-3-methyl-5-(3-trifluoromethyl-phenyl)-pyridin-2-yl]-(4-pyrrolidin-1-yl-piperidin-1-yl)-methanone] it was 16 nM. Turning to `COc1nc(C(=O)N2CCC(N3CCCC3)CC2)c(C)cc1-c1cccc(C(F)(F)F)c1` [Example 8, [6-Methoxy-3-methyl-5-(3-trifluoromethyl-phenyl)-pyridin-2-yl]-(4-pyrrolidin-1-yl-piperidin-1-yl)-methanone], the IC50 amounted to 65 nM. On to `Cc1cc(-c2cccc(C(F)(F)F)c2)c(O)nc1C(=O)N1CCC(N2CCCC2)CC1` [Example 9, [6-Hydroxy-3-methyl-5-(3-trifluoromethyl-phenyl)-pyridin-2-yl]-(4-pyrrolidin-1-yl-piperidin-1-yl)-methanone; 5-Methyl-6-(4-pyrrolidin-1-yl-piperidine-1-carbonyl)-3-(3-trifluoromethyl-phenyl)-1H-pyridin-2-one (tautomers)], for which the IC50 came to 6.4 nM.

With `CC(=O)N(C(C)=O)c1nc(C(=O)N2CCC(N3CCCC3)CC2)c(C)cc1-c1cccc(C(F)(F)F)c1` [Example 10, N-Acetyl-N-[5-methyl-6-(4-pyrrolidin-1-yl-piperidine-1-carbonyl)-3-(3-trifluoromethyl-phenyl)-pyridin-2-yl]-acetamide], the IC50 is 78 nM. For `CC(=O)Nc1nc(C(=O)N2CCC(N3CCCC3)CC2)c(C)cc1-c1cccc(C(F)(F)F)c1` [Example 11, N-[5-Methyl-6-(4-pyrrolidin-1-yl-piperidine-1-carbonyl)-3-(3-trifluoromethyl-phenyl)-pyridin-2-yl]-acetamide], the IC50 is 71 nM.

Regarding `Cc1cc(-c2cccc(C(F)(F)F)c2)n(C)c(=O)c1C(=O)N1CCC(N2CCCC2)CC1` [Example 13, 1,4-Dimethyl-3-(4-pyrrolidin-1-yl-piperidine-1-carbonyl)-6-(3-trifluoromethyl-phenyl)-1H-pyridin-2-one], the IC50 was found to be 58 nM. In the case of `O=C(c1ncc(-c2cccc(C(F)(F)F)c2)cc1Cl)N1CCC(N2CCCC2)CC1` [Example 14, [3-Chloro-5-(3-trifluoromethyl-phenyl)-pyridin-2-yl]-(4-pyrrolidin-1-yl-piperidin-1-yl)-methanone] it was 12 nM; in that of `O=C(c1ncc(-c2cccc(C(F)(F)F)c2)cc1-c1cccc(C(F)(F)F)c1)N1CCC(N2CCCC2)CC1` [Example 15, [3,5-Bis-(3-trifluoromethyl-phenyl)-pyridin-2-yl]-(4-pyrrolidin-1-yl-piperidin-1-yl)-methanone], 250 nM; in that of `Cc1cc(-c2cccc(C(F)(F)F)c2)c(-c2cccnc2)nc1C(=O)N1CCC(N2CCCC2)CC1` [Example 16, [5-Methyl-3-(3-trifluoromethyl-phenyl)-[2,3′]bipyridinyl-6-yl]-(4-pyrrolidin-1-yl-piperidin-1-yl)-methanone], 4.2 nM. As for `Cc1cc(-c2cccc(C(F)(F)F)c2)c(-c2cncnc2)nc1C(=O)N1CCC(N2CCCC2)CC1` [Example 17, [3-Methyl-6-pyrimidin-5-yl-5-(3-trifluoromethyl-phenyl)-pyridin-2-yl]-(4-pyrrolidin-1-yl-piperidin-1-yl)-methanone], the figure is 8.7 nM. For `Cc1cc(-c2cccc(C(F)(F)F)c2)nc(N)c1C(=O)N1CCC(N2CCCC2)CC1` [Example 19, [2-Amino-4-methyl-6-(3-trifluoromethyl-phenyl)-pyridin-3-yl]-(4-pyrrolidin-1-yl-piperidin-1-yl)-methanone], the IC50 was 64 nM. For the compound `Cc1cc(-c2cccc(C(F)(F)F)c2)c(-n2cnc(Cl)n2)nc1C(=O)N1CCC(N2CCCC2)CC1` [Example 20, [6-(3-Chloro-[1,2,4]triazol-1-yl)-3-methyl-5-(3-trifluoromethyl-phenyl)-pyridin-2-yl]-(4-pyrrolidin-1-yl-piperidin-1-yl)-methanone], the IC50 came to 4 nM. Consider `O=C(c1nc(Cl)c(-c2cccc(C(F)(F)F)c2)cc1Cl)N1CCC(N2CCCC2)CC1` [Example 21, [3,6-Dichloro-5-(3-trifluoromethyl-phenyl)-pyridin-2-yl]-(4-pyrrolidin-1-yl-piperidin-1-yl)-methanone], for which the IC50 was 3.2 nM.

For the compound `COc1nc(C(=O)N2CCC(N3CCCC3)CC2)c(Cl)cc1-c1cccc(C(F)(F)F)c1` [Example 22, [3-Chloro-6-methoxy-5-(3-trifluoromethyl-phenyl)-pyridin-2-yl]-(4-pyrrolidin-1-yl-piperidin-1-yl)-methanone], the IC50 turned out to be 18 nM. Consider `O=C(c1nc(O)c(-c2cccc(C(F)(F)F)c2)cc1Cl)N1CCC(N2CCCC2)CC1` [Example 23, [3-Chloro-6-hydroxy-5-(3-trifluoromethyl-phenyl)-pyridin-2-yl]-(4-pyrrolidin-1-yl-piperidin-1-yl)-methanone; 5-Chloro-6-(4-pyrrolidin-1-yl-piperidine-1-carbonyl)-3-(3-trifluoromethyl-phenyl)-1H-pyridin-2-one (tautomers)], for which the IC50 was found to be 41 nM.

Regarding `C#Cc1nc(C(=O)N2CCC(N3CCCC3)CC2)c(C)cc1-c1cccc(C(F)(F)F)c1` [Example 24, [6-Ethynyl-3-methyl-5-(3-trifluoromethyl-phenyl)-pyridin-2-yl]-(4-pyrrolidin-1-yl-piperidin-1-yl)-methanone], the IC50 was 4.8 nM.

As for `Cc1cc(-c2cccc(C(F)(F)F)c2)c(-n2cncn2)nc1C(=O)N1CCC(N2CCCC2)CC1` [Example 25, [3-Methyl-6-[1,2,4]triazol-1-yl-5-(3-trifluoromethyl-phenyl)-pyridin-2-yl]-(4-pyrrolidin-1-yl-piperidin-1-yl)-methanone], the IC50 turned out to be 2.3 nM.

`Cc1cc(-c2cccc(C(F)(F)F)c2)c(NCCN)nc1C(=O)N1CCC(N2CCCC2)CC1` [Example 26, [6-(2-Amino-ethylamino)-3-methyl-5-(3-trifluoromethyl-phenyl)-pyridin-2-yl]-(4-pyrrolidin-1-yl-piperidin-1-yl)-methanone]: the IC50 is 67 nM. As to `Cc1cc(-c2cccc(C(F)(F)F)c2)c(NCCO)nc1C(=O)N1CCC(N2CCCC2)CC1` [Example 27, [6-(2-Hydroxy-ethylamino)-3-methyl-5-(3-trifluoromethyl-phenyl)-pyridin-2-yl]-(4-pyrrolidin-1-yl-piperidin-1-yl)-methanone], the IC50 worked out at 41 nM. Take `Cc1cc(-c2ccc(Cl)c(Cl)c2)cnc1C(=O)N1CCC(N2CCCC2)CC1` [Example 28, [5-(3,4-Dichloro-phenyl)-3-methyl-pyridin-2-yl]-(4-pyrrolidin-1-yl-piperidin-1-yl)-methanone]: the IC50 amounted to 250 nM. In the case of `Cc1cc(-c2cc(C(F)(F)F)ccc2Cl)cnc1C(=O)N1CCC(N2CCCC2)CC1` [Example 30, [5-(2-Chloro-5-trifluoromethyl-phenyl)-3-methyl-pyridin-2-yl]-(4-pyrrolidin-1-yl-piperidin-1-yl)-methanone], the IC50 is 54 nM.
